Assay results: paper PMC5218480 (PLoS ONE, 2017)

Tested on: MV-4-11 cells
Test: Gene expression microarray analysis (Affymetrix PrimeView) and GSEA
Type: cell-based, human
Set-up: RFU PODN (11730768_x_at) / Fold change /veh PODN (11730768_x_at) / RFU LINC00158 (11744669_a_at) / Fold change /veh LINC00158 (11744669_a_at) / RFU DUSP10 (11751237_a_at) / Fold change /veh DUSP10 (11751237_a_at) / RFU ID3 (11757404_x_at) / Fold change /veh ID3 (11757404_x_at) / RFU PLEKHG5 (11737974_s_at) / Fold change /veh PLEKHG5 (11737974_s_at) / RFU LRRC4B (11730491_at) / Fold change /veh LRRC4B (11730491_at) / RFU GIMAP4 (11747438_a_at) / Fold change /veh GIMAP4 (11747438_a_at) / RFU KRT8 (11758183_x_at) / Fold change /veh KRT8 (11758183_x_at) / RFU CNN1 (11734310_a_at) / Fold change /veh CNN1 (11734310_a_at) / RFU VPS37D (11726825_at) / Fold change /veh VPS37D (11726825_at) / RFU C10orf10 (11716522_x_at) / Fold change /veh C10orf10 (11716522_x_at) / RFU KIR2DL2 /// KIR2DL4 /// KIR2DL5A /// KIR2DL5B /// KIR2DS1 /// KIR2DS2 /// KIR2DS3 /// KIR2DS4 /// KIR3DL3 /// KIR3DL3 /// KIR3DS1 (11738374_at) / Fold change /veh KIR2DL2 /// KIR2DL4 /// KIR2DL5A /// KIR2DL5B /// KIR2DS1 /// KIR2DS2 /// KIR2DS3 /// KIR2DS4 /// KIR3DL3 /// KIR3DL3 /// KIR3DS1 (11738374_at) / RFU C1QL1 (11718748_at) / Fold change /veh C1QL1 (11718748_at) / RFU TMPRSS4 (11747572_a_at) / Fold change /veh TMPRSS4 (11747572_a_at) / RFU HAMP (11756126_x_at) / Fold change /veh HAMP (11756126_x_at) / RFU RNFT2 (11725882_a_at) / Fold change /veh RNFT2 (11725882_a_at) / RFU NR4A2 (11747474_a_at) / Fold change /veh NR4A2 (11747474_a_at) / RFU ABCC12 (11746883_a_at) / Fold change /veh ABCC12 (11746883_a_at) / RFU TMEM136 (11760407_x_at) / Fold change /veh TMEM136 (11760407_x_at) / RFU CLDN22 /// WWC2 (11732394_at) / Fold change /veh CLDN22 /// WWC2 (11732394_at) / RFU HLA-DPB1 (11760878_x_at) / Fold change /veh HLA-DPB1 (11760878_x_at) / RFU SPINT1 (11716480_a_at) / Fold change /veh SPINT1 (11716480_a_at) / RFU GAP43 (11754022_s_at) / Fold change /veh GAP43 (11754022_s_at) / RFU A4GNT (11735810_at) / Fold change /veh A4GNT (11735810_at) / RFU PRB3 (11715151_x_at) / Fold change /veh PRB3 (11715151_x_at) / RFU TUBB4B (11761932_at) / Fold change /veh TUBB4B (11761932_at) / RFU CAPN14 (11732068_a_at) / Fold change /veh CAPN14 (11732068_a_at) / RFU TMCC2 (11721928_a_at) / Fold change /veh TMCC2 (11721928_a_at) / RFU IRGQ (11745062_a_at) / Fold change /veh IRGQ (11745062_a_at) / RFU FAM174B (11720279_a_at) / Fold change /veh FAM174B (11720279_a_at) / RFU TMPRSS4 (11748680_a_at) / Fold change /veh TMPRSS4 (11748680_a_at) / RFU FAM212B (11763350_a_at) / Fold change /veh FAM212B (11763350_a_at) / RFU PLEKHG5 (11743358_a_at) / Fold change /veh PLEKHG5 (11743358_a_at) / RFU ZSCAN30 (11745921_a_at) / Fold change /veh ZSCAN30 (11745921_a_at) / RFU CMKLR1 (11741424_a_at) / Fold change /veh CMKLR1 (11741424_a_at) / RFU LOC101060620 /// MAPK8IP1 (11723275_at) / Fold change /veh LOC101060620 /// MAPK8IP1 (11723275_at) / RFU SPTSSB (11747773_x_at) / Fold change /veh SPTSSB (11747773_x_at) / RFU PRSS12 (11739890_at) / Fold change /veh PRSS12 (11739890_at) / RFU BIN1 (11741810_x_at) / Fold change /veh BIN1 (11741810_x_at) / RFU WNT11 (11732464_a_at) / Fold change /veh WNT11 (11732464_a_at) / RFU C10orf10 (11716521_a_at) / Fold change /veh C10orf10 (11716521_a_at) / RFU C5orf56 (11738089_at) / Fold change /veh C5orf56 (11738089_at) / RFU CYB561 (11721691_x_at) / Fold change /veh CYB561 (11721691_x_at) / RFU ANKRD19P (11752326_a_at) / Fold change /veh ANKRD19P (11752326_a_at) / RFU OR2T12 /// OR2T33 /// OR2T8 (11738714_s_at) / Fold change /veh OR2T12 /// OR2T33 /// OR2T8 (11738714_s_at) / RFU VCAN (11748164_a_at) / Fold change /veh VCAN (11748164_a_at) / RFU JSRP1 (11732532_at) / Fold change /veh JSRP1 (11732532_at) / RFU KRTAP10-11 (11738290_x_at) / Fold change /veh KRTAP10-11 (11738290_x_at) / RFU MYO3A (11730013_a_at) / Fold change /veh MYO3A (11730013_a_at) / RFU EBF3 (11725865_a_at) / Fold change /veh EBF3 (11725865_a_at) / RFU CAMK2N1 (11719241_x_at) / Fold change /veh CAMK2N1 (11719241_x_at) / RFU C5orf56 (11738088_a_at) / Fold change /veh C5orf56 (11738088_a_at) / RFU OLFML3 (11715873_a_at) / Fold change /veh OLFML3 (11715873_a_at) / RFU LOC100653217 /// NTM (11731650_a_at) / Fold change /veh LOC100653217 /// NTM (11731650_a_at) / RFU MAPK11 (11762145_a_at) / Fold change /veh MAPK11 (11762145_a_at) / RFU FIZ1 (11724087_x_at) / Fold change /veh FIZ1 (11724087_x_at) / RFU OASL (11726364_x_at) / Fold change /veh OASL (11726364_x_at) / RFU SOX15 (11748057_x_at) / Fold change /veh SOX15 (11748057_x_at) / RFU CD79A (11719716_a_at) / Fold change /veh CD79A (11719716_a_at) / RFU HIST1H1D (11736915_at) / Fold change /veh HIST1H1D (11736915_at) / RFU CASKIN2 (11723855_a_at) / Fold change /veh CASKIN2 (11723855_a_at) / RFU LOC730098 (11760151_x_at) / Fold change /veh LOC730098 (11760151_x_at) / RFU OR4N2 (11742367_at) / Fold change /veh OR4N2 (11742367_at) / RFU PRRT2 (11749266_a_at) / Fold change /veh PRRT2 (11749266_a_at) / RFU SNX32 (11753110_a_at) / Fold change /veh SNX32 (11753110_a_at) / RFU CDHR5 (11726645_a_at) / Fold change /veh CDHR5 (11726645_a_at) / RFU RCAN1 (11760418_a_at) / Fold change /veh RCAN1 (11760418_a_at) / RFU FAM167A (11723789_a_at) / Fold change /veh FAM167A (11723789_a_at) / RFU FAM26E (11764081_at) / Fold change /veh FAM26E (11764081_at) / RFU ISYNA1 (11749810_s_at) / Fold change /veh ISYNA1 (11749810_s_at) / RFU ACY1 (11761880_at) / Fold change /veh ACY1 (11761880_at) / RFU 11764098_at / Fold change /veh 11764098_at / RFU SAMD14 (11745864_x_at) / Fold change /veh SAMD14 (11745864_x_at) / RFU NPB (11741838_a_at) / Fold change /veh NPB (11741838_a_at) / RFU TMPRSS6 (11731388_a_at) / Fold change /veh TMPRSS6 (11731388_a_at) / RFU KRTAP10-2 (11738614_at) / Fold change /veh KRTAP10-2 (11738614_at) / RFU ARHGAP8 /// PRR5-ARHGAP8 (11727945_x_at) / Fold change /veh ARHGAP8 /// PRR5-ARHGAP8 (11727945_x_at) / RFU KRTAP5-7 /// NADSYN1 (11734609_at) / Fold change /veh KRTAP5-7 /// NADSYN1 (11734609_at) / RFU RASL12 (11751679_a_at) / Fold change /veh RASL12 (11751679_a_at) / RFU CDKN2B (11736163_a_at) / Fold change /veh CDKN2B (11736163_a_at) / RFU PRF1 (11729649_at) / Fold change /veh PRF1 (11729649_at) / RFU, ZNF638 /// ZNF638-IT1 / Fold change vs veh, ZNF638 /// ZNF638-IT1 / RFU, PANK3 / Fold change vs veh, PANK3 / RFU, SH3YL1 / Fold change vs veh, SH3YL1 / RFU, ZEB2 / Fold change vs veh, ZEB2 / RFU, NRIP1 / Fold change vs veh, NRIP1 / RFU, PTTG1IP / Fold change vs veh, PTTG1IP / RFU, CAPN2 / Fold change vs veh, CAPN2 / RFU, MED14 / Fold change vs veh, MED14 / RFU, SNORA58 / Fold change vs veh, SNORA58 / RFU, C1orf63 / Fold change vs veh, C1orf63 / RFU, LRRFIP1 / Fold change vs veh, LRRFIP1 / RFU, NDUFAF7 / Fold change vs veh, NDUFAF7 / RFU, SLC12A2 / Fold change vs veh, SLC12A2 / RFU, IBTK / Fold change vs veh, IBTK / RFU, ESF1 / Fold change vs veh, ESF1 / Fold change vs veh, TMEM50B / RFU, TAOK1 / Fold change vs veh, TAOK1 / RFU, ACBD3 / Fold change vs veh, ACBD3 / RFU, TMA16 / Fold change vs veh, TMA16 / RFU, RWDD3 / Fold change vs veh, RWDD3 / RFU, BCAT1 / Fold change vs veh, BCAT1 / RFU, EDEM3 / Fold change vs veh, EDEM3 / RFU, TMEM33 / Fold change vs veh, TMEM33 / RFU, WDR75 / Fold change vs veh, WDR75 / RFU, AHCTF1 / Fold change vs veh, AHCTF1 / RFU, TFRC / Fold change vs veh, TFRC / RFU, ZDHHC17 / Fold change vs veh, ZDHHC17 / RFU, NOM1 / Fold change vs veh, NOM1 / RFU, ARL8B / Fold change vs veh, ARL8B / RFU, ZBTB11 / Fold change vs veh, ZBTB11 / RFU, TAMM41 / Fold change vs veh, TAMM41 / RFU, KIAA1704 /// LOC100996395 / Fold change vs veh, KIAA1704 /// LOC100996395 / RFU, ING1 / Fold change vs veh, ING1 / RFU, TRMT61B / Fold change vs veh, TRMT61B / RFU, FUBP3 / Fold change vs veh, FUBP3 / RFU, TP53 / Fold change vs veh, TP53 / RFU, TNKS2 / Fold change vs veh, TNKS2 / RFU, ZFP14 / Fold change vs veh, ZFP14 / RFU, ACTR2 / Fold change vs veh, ACTR2 / RFU, PPP3R1 / Fold change vs veh, PPP3R1 / RFU, PIK3R1 / Fold change vs veh, PIK3R1 / RFU, HNRNPA1 / Fold change vs veh, HNRNPA1 / RFU, RNF170 / Fold change vs veh, RNF170 / RFU, ZNF28 / Fold change vs veh, ZNF28 / RFU, RNGTT / Fold change vs veh, RNGTT / RFU, OGT / Fold change vs veh, OGT / RFU, BRD1 / Fold change vs veh, BRD1 / RFU, MARS / Fold change vs veh, MARS / RFU, ZNF655 / Fold change vs veh, ZNF655 / RFU, FAHD1 / Fold change vs veh, FAHD1 / RFU, BDP1 / Fold change vs veh, BDP1 / RFU, LRRCC1 / Fold change vs veh, LRRCC1 / RFU, ARID1A / Fold change vs veh, ARID1A / RFU, ZNF146 / Fold change vs veh, ZNF146 / RFU, ZNF330 / Fold change vs veh, ZNF330 / RFU, GPN3 / Fold change vs veh, GPN3 / RFU, C9orf123 / Fold change vs veh, C9orf123 / RFU, N4BP2L2 / Fold change vs veh, N4BP2L2 / RFU, ARFIP1 / Fold change vs veh, ARFIP1 / RFU, FAM179B / Fold change vs veh, FAM179B / RFU, BCL10 / Fold change vs veh, BCL10 / RFU, UHRF1BP1L / Fold change vs veh, UHRF1BP1L / RFU, BET1 / Fold change vs veh, BET1 / RFU, CNOT2 / Fold change vs veh, CNOT2 / RFU, ZNF268 / Fold change vs veh, ZNF268 / Fold change vs veh, ZNF507 / RFU, DGCR2 / Fold change vs veh, DGCR2 / RFU, WDSUB1 / Fold change vs veh, WDSUB1 / Fold change vs veh, HSP90B1 /// MIR3652 / RFU, ADSS / Fold change vs veh, ADSS / RFU, GK / Fold change vs veh, GK / RFU, ZNF148 / Fold change vs veh, ZNF148 / RFU, TAF9 / Fold change vs veh, TAF9 / RFU, SLC1A5 / Fold change vs veh, SLC1A5 / RFU, SLMO2 / Fold change vs veh, SLMO2 / RFU, ABCC4 / Fold change vs veh, ABCC4 / RFU, LOC101060439 /// RAP1B / Fold change vs veh, LOC101060439 /// RAP1B / RFU, RFX7 / Fold change vs veh, RFX7 / RFU, GTPBP10 / Fold change vs veh, GTPBP10 / RFU, CNEP1R1 / Fold change vs veh, CNEP1R1 / RFU, BIVM-ERCC5 /// ERCC5 / Fold change vs veh, BIVM-ERCC5 /// ERCC5 / RFU, ILF3 / Fold change vs veh, ILF3 / RFU 11762660_at / Fold change /veh 11762660_at / RFU VCAN (11757783_s_at) / Fold change /veh VCAN (11757783_s_at) / RFU DDX43 (11728927_at) / Fold change /veh DDX43 (11728927_at) / RFU KRT8 (11758188_x_at) / Fold change /veh KRT8 (11758188_x_at) / RFU NKD1 (11759106_at) / Fold change /veh NKD1 (11759106_at) / RFU SRD5A1 (11742802_a_at) / Fold change /veh SRD5A1 (11742802_a_at) / RFU TPSAB1 /// TPSB2 (11721975_s_at) / Fold change /veh TPSAB1 /// TPSB2 (11721975_s_at) / RFU GSTM3 (11746129_a_at) / Fold change /veh GSTM3 (11746129_a_at) / RFU IL23R (11737362_x_at) / Fold change /veh IL23R (11737362_x_at) / RFU TMEM51 (11727254_a_at) / Fold change /veh TMEM51 (11727254_a_at) / RFU PIWIL2 (11732686_x_at) / Fold change /veh PIWIL2 (11732686_x_at) / RFU ORM1 (11744905_x_at) / Fold change /veh ORM1 (11744905_x_at) / RFU CCDC152 (11743942_at) / Fold change /veh CCDC152 (11743942_at) / RFU ECM1 (11717891_a_at) / Fold change /veh ECM1 (11717891_a_at) / RFU IL23R (11748794_a_at) / Fold change /veh IL23R (11748794_a_at) / RFU TNFAIP8L3 (11732012_x_at) / Fold change /veh TNFAIP8L3 (11732012_x_at) / RFU MBOAT4 (11741988_at) / Fold change /veh MBOAT4 (11741988_at) / RFU 11764193_at / Fold change /veh 11764193_at / RFU TMEM53 (11763286_at) / Fold change /veh TMEM53 (11763286_at) / RFU MAGEB2 (11727129_at) / Fold change /veh MAGEB2 (11727129_at) / RFU TMEM200A (11744735_a_at) / Fold change /veh TMEM200A (11744735_a_at) / RFU CCDC152 (11751479_a_at) / Fold change /veh CCDC152 (11751479_a_at) / RFU FAM211A (11726209_a_at) / Fold change /veh FAM211A (11726209_a_at) / RFU RGS16 (11746705_a_at) / Fold change /veh RGS16 (11746705_a_at) / RFU VCAN (11755009_s_at) / Fold change /veh VCAN (11755009_s_at) / RFU RHOB (11743442_s_at) / Fold change /veh RHOB (11743442_s_at) / RFU RGS16 (11720943_a_at) / Fold change /veh RGS16 (11720943_a_at) / RFU RGS16 (11720944_at) / Fold change /veh RGS16 (11720944_at) / RFU, VPS4B / Fold change vs veh, VPS4B / RFU, CREB1 / Fold change vs veh, CREB1 / RFU, DNAJC13 / Fold change vs veh, DNAJC13 / RFU, GNAQ / Fold change vs veh, GNAQ / RFU, CDK5R1 / Fold change vs veh, CDK5R1 / RFU, ZRANB3 / Fold change vs veh, ZRANB3 / RFU, CUL4A / Fold change vs veh, CUL4A / RFU, CCNY / Fold change vs veh, CCNY / RFU, UFL1 / Fold change vs veh, UFL1 / RFU, COG3 / Fold change vs veh, COG3 / RFU, DIAPH2 / Fold change vs veh, DIAPH2 / RFU, SKA2 / Fold change vs veh, SKA2 / RFU, AFF3 / Fold change vs veh, AFF3 / RFU, LMF1 / Fold change vs veh, LMF1 / RFU, IPO11 / Fold change vs veh, IPO11 / RFU, DFFB / Fold change vs veh, DFFB / RFU, FOXP1 / Fold change vs veh, FOXP1 / RFU, CARD8 / Fold change vs veh, CARD8 / RFU, STRN3 / Fold change vs veh, STRN3 / RFU, ADK / Fold change vs veh, ADK / RFU, RASSF2 / Fold change vs veh, RASSF2 / RFU, WIPF1 / Fold change vs veh, WIPF1 / RFU, LARP1B / Fold change vs veh, LARP1B / RFU, RASA1 / Fold change vs veh, RASA1 / RFU, RB1 / Fold change vs veh, RB1 / RFU, PPFIA1 / Fold change vs veh, PPFIA1 / RFU, MAT2A / Fold change vs veh, MAT2A / RFU, CCT5 / Fold change vs veh, CCT5 / RFU, WDR92 / Fold change vs veh, WDR92 / RFU, CUX1 / Fold change vs veh, CUX1 / RFU, TTC7A / Fold change vs veh, TTC7A / RFU, TMEM135 / Fold change vs veh, TMEM135 / RFU, DEPTOR / Fold change vs veh, DEPTOR / RFU, CPM / Fold change vs veh, CPM / RFU, DNAJB6 / Fold change vs veh, DNAJB6 / RFU, CACNA2D3 / Fold change vs veh, CACNA2D3 / RFU, DTX4 / Fold change vs veh, DTX4 / RFU, TFCP2 / Fold change vs veh, TFCP2 / RFU, GMCL1 /// GMCL1P1 / Fold change vs veh, GMCL1 /// GMCL1P1 / RFU, AEBP2 / Fold change vs veh, AEBP2 / RFU, SNHG1 /// SNORD22 /// SNORD25 /// SNORD26 /// SNORD27 /// SNORD28 /// SNORD29 /// SNORD31 / Fold change vs veh, SNHG1 /// SNORD22 /// SNORD25 /// SNORD26 /// SNORD27 /// SNORD28 /// SNORD29 /// SNORD31 / Fold change (Aza/veh), C12orf56 (ProbeSet 11735607_a_at) / Fold change (ACY-1035/veh), C12orf56 (ProbeSet 11735607_a_at) / Fold change (Aza/veh), FGFR1OP (ProbeSet 11751329_s_at) / Fold change (ACY-1035/veh), FGFR1OP (ProbeSet 11751329_s_at) / Fold change (Aza/veh), VPS36 (ProbeSet 11739960_a_at) / Fold change (ACY-1035/veh), VPS36 (ProbeSet 11739960_a_at) / RFU SYPL1 (11715823_x_at) / Fold change /veh SYPL1 (11715823_x_at) / RFU IGFBP7 (11715501_s_at) / Fold change /veh IGFBP7 (11715501_s_at) / RFU REEP3 (11722064_at) / Fold change /veh REEP3 (11722064_at) / RFU IGLL1 (11728026_x_at) / Fold change /veh IGLL1 (11728026_x_at): dose or concentration left out as unconfirmed
Settings: ProbeSet 11731461_x_at; LIST D

For `Nc1ncn([C@@H]2O[C@H](CO)[C@@H](O)[C@H]2O)c(=O)n1` [azacitidine], the “RFU, CPM” value was 125.18 RFU.
